Measurements taken from US8710198B2, “Caprazene as a novel compound and derivatives thereof, and caprazol as a novel compound and derivatives thereof” (Meiji Seika Pharma Co., Ltd., priority 2003, dated 2014).

How the values were obtained:
Micrococcus luteus FDA16 = experiment: Minimum growth inhibitory concentration on agar culture medium by serial dilution method (Japanese Society of Chemotherapy); type: cell-based
Experimental: (§1) Minimum growth inhibitory concentrations (mcg/ml) of caprazene-1′″-amide derivatives of the formula (II) against some of microorganisms were measured on an agar culture medium by a serial dilution method according to the standard method as provided by Japanese Society of Chemotherapy. For the cultivation of Mycobacterium smegmatis (one of […]), however, there was used an agar culture medium with the addition of 1% glycerine (the same applies to in the following tests).
(§2) Minimum growth inhibitory concentrations (mcg/ml) of some of the caprazene-1′″-ester derivative of the formula (III) against some of microorganisms were measured on an agar culture medium by a serial dilution method according to the standard method as provided by Japanese Society of Chemotherapy.
(§3) Minimum growth inhibitory concentrations (mcg/ml) of some of the caprazol-1′″-amide derivative of the formula (V) against a variety of microorganisms were measured on an agar medium by a serial dilution method according to the standard method as provided by Japanese Society of Chemotherapy.
as §3, with “caprazol-1′″-amide-3′″-ester” for “caprazol-1′″-amide”, “(VI)” for “(V)”
as §3, with “caprazol-3′″-ester derivative or caprazol-1′″-ester-3′″-ester” for “caprazol-1′″-amide”, “(VII)” for “(V)”
(§4) Minimum growth inhibitory concentrations (mcg/ml) of some of the derivative of the formula (VIII) against a variety of microorganisms were measured on an agar medium by a serial dilution method according to the standard method as provided by Japanese Society of Chemotherapy.

[1] = system: Staphylococcus aureus FDA209P; experiment: as above; type: cell-based
Experimental: as §1, §2, §3
as §4, with “of the caprazol-1′″-amide-3′″-ester derivative of” for “of the derivative of”, “the formula (VI) against a” for “the formula (VIII) against a”
as §4, with “of the caprazol-3′″-ester derivative or caprazol-1′″-ester-3′″-ester derivative of” for “of the derivative of”, “the formula (VII) against a” for “the formula (VIII) against a”
as §4

[2] = system: Mycobacterium smegmatis ATCC607; experiment: Minimum growth inhibitory concentration on agar culture medium with 1% glycerine by serial dilution method; type: cell-based; details: agar culture medium with the addition of 1% glycerine
Experimental: as §1, §2, §3
as §4, with “of the caprazol-1′″-amide-3′″-ester derivative of” for “of the derivative of”, “the formula (VI) against a” for “the formula (VIII) against a”
as §4, with “of the caprazol-3′″-ester derivative or caprazol-1′″-ester-3′″-ester derivative of” for “of the derivative of”, “the formula (VII) against a” for “the formula (VIII) against a”

acid-fast bacteria = details: statement in words, WO 01/12643A1 / EP 1211259A1; cited from earlier work

In the case of CCCCCCCCCCNC(=O)C1C(OC(=O)CCCCCCCCCC)CN(C)C(C(OC2OC(CN)C(O)C2O)C2OC(n3ccc(=O)[nH]c3=O)C(O)C2O)C(=O)N1C (centres unmarked) [Compound VI-E], the “Minimum growth inhibitory concentration (mcg/ml) against bacteria Micrococcus luteus FDA16” value (Micrococcus luteus FDA16) is reported as 6.25 µg/mL, the “Minimum growth inhibitory concentration (mcg/ml) against bacteria Staphylococcus aureus FDA209P” value [1] is reported as 12.5 µg/mL and the “Minimum growth inhibitory concentration (mcg/ml) against bacteria Mycobacterium smegmatis ATCC607” value [2] is reported as 6.25 µg/mL.
For CCCCCCCCCCCNC(=O)C1C(OC(=O)CCCCCCCCCCC)CN(C)C(C(OC2OC(CN)C(O)C2O)C2OC(n3ccc(=O)[nH]c3=O)C(O)C2O)C(=O)N1C (centres unmarked) [Compound VI-F], the “Minimum growth inhibitory concentration (mcg/ml) against bacteria Micrococcus luteus FDA16” value (Micrococcus luteus FDA16) was 3.13 µg/mL, the “Minimum growth inhibitory concentration (mcg/ml) against bacteria Staphylococcus aureus FDA209P” value [1] was 12.5 µg/mL and the “Minimum growth inhibitory concentration (mcg/ml) against bacteria Mycobacterium smegmatis ATCC607” value [2] was 6.25 µg/mL.
For CCCCCCCCCCCCNC(=O)C1C(OC(=O)CCCCCCCCCCC)CN(C)C(C(OC2OC(CN)C(O)C2O)C2OC(n3ccc(=O)[nH]c3=O)C(O)C2O)C(=O)N1C (centres unmarked) [Compound VI-G, caprazol-1′″-dodecylamide-3′″-dodecanoylester derivative], the “Minimum growth inhibitory concentration (mcg/ml) against bacteria Micrococcus luteus FDA16” value (Micrococcus luteus FDA16) was 3.13 µg/mL, the “Minimum growth inhibitory concentration (mcg/ml) against bacteria Staphylococcus aureus FDA209P” value [1] was 25 µg/mL and the “Minimum growth inhibitory concentration (mcg/ml) against bacteria Mycobacterium smegmatis ATCC607” value [2] was 6.25 µg/mL.
With CCCCCCCCCCCC(=O)OC1CN(C)C(C(OC2OC(CN)C(O)C2O)C2OC(n3ccc(=O)[nH]c3=O)C(O)C2O)C(=O)N(C)C1C(=O)NC1CCCCCCCCCCC1 (centres unmarked) [Compound VI-Q] the “Minimum growth inhibitory concentration (mcg/ml) against bacteria Micrococcus luteus FDA16” value (Micrococcus luteus FDA16) was 3.13 µg/mL, the “Minimum growth inhibitory concentration (mcg/ml) against bacteria Staphylococcus aureus FDA209P” value [1] was 12.5 µg/mL and the “Minimum growth inhibitory concentration (mcg/ml) against bacteria Mycobacterium smegmatis ATCC607” value [2] was 6.25 µg/mL.
For CCCCCCCCC=CCCCCCCCCNC(=O)C1C(OC(=O)CCCCCCCCCCC)CN(C)C(C(OC2OC(CN)C(O)C2O)C2OC(n3ccc(=O)[nH]c3=O)C(O)C2O)C(=O)N1C (centres unmarked) [Compound VI-R], the “Minimum growth inhibitory concentration (mcg/ml) against bacteria Micrococcus luteus FDA16” value (Micrococcus luteus FDA16) was 3.13 µg/mL, the “Minimum growth inhibitory concentration (mcg/ml) against bacteria Staphylococcus aureus FDA209P” value [1] was 25 µg/mL and the “Minimum growth inhibitory concentration (mcg/ml) against bacteria Mycobacterium smegmatis ATCC607” value [2] was 6.25 µg/mL.
With CCCCCCC(=O)OC1CN(C)C(C(OC2OC(CN)C(O)C2O)C2OC(n3ccc(=O)[nH]c3=O)C(O)C2O)C(=O)N(C)C1C(=O)O (centres unmarked) [Compound VII-A] the “Minimum growth inhibitory concentration (mcg/ml) against bacteria Micrococcus luteus FDA16” value (Micrococcus luteus FDA16) was >50 µg/mL, the “Minimum growth inhibitory concentration (mcg/ml) against bacteria Staphylococcus aureus FDA209P” value [1] was 25 µg/mL and the “Minimum growth inhibitory concentration (mcg/ml) against bacteria Mycobacterium smegmatis ATCC607” value [2] was 1.56 µg/mL.
With CCCCCCCC(=O)OC1CN(C)C(C(OC2OC(CN)C(O)C2O)C2OC(n3ccc(=O)[nH]c3=O)C(O)C2O)C(=O)N(C)C1C(=O)O (centres unmarked) [Compound VII-B] the “Minimum growth inhibitory concentration (mcg/ml) against bacteria Micrococcus luteus FDA16” value (Micrococcus luteus FDA16) was >50 µg/mL, the “Minimum growth inhibitory concentration (mcg/ml) against bacteria Staphylococcus aureus FDA209P” value [1] was 12.5 µg/mL and the “Minimum growth inhibitory concentration (mcg/ml) against bacteria Mycobacterium smegmatis ATCC607” value [2] was 1.56 µg/mL.
For CCCCCCCCC(=O)OC1CN(C)C(C(OC2OC(CN)C(O)C2O)C2OC(n3ccc(=O)[nH]c3=O)C(O)C2O)C(=O)N(C)C1C(=O)O (centres unmarked) [Compound VII-C], the “Minimum growth inhibitory concentration (mcg/ml) against bacteria Micrococcus luteus FDA16” value (Micrococcus luteus FDA16) was >50 µg/mL, the “Minimum growth inhibitory concentration (mcg/ml) against bacteria Staphylococcus aureus FDA209P” value [1] was 12.5 µg/mL and the “Minimum growth inhibitory concentration (mcg/ml) against bacteria Mycobacterium smegmatis ATCC607” value [2] was 0.78 µg/mL.
With CCCCCCCCCC(=O)OC1CN(C)C(C(OC2OC(CN)C(O)C2O)C2OC(n3ccc(=O)[nH]c3=O)C(O)C2O)C(=O)N(C)C1C(=O)O (centres unmarked) [Compound VII-D] the “Minimum growth inhibitory concentration (mcg/ml) against bacteria Micrococcus luteus FDA16” value (Micrococcus luteus FDA16) was 3.13 µg/mL, the “Minimum growth inhibitory concentration (mcg/ml) against bacteria Staphylococcus aureus FDA209P” value [1] was 3.13 µg/mL and the “Minimum growth inhibitory concentration (mcg/ml) against bacteria Mycobacterium smegmatis ATCC607” value [2] was 0.78 µg/mL.
For CCCCCCCCCCC(=O)OC1CN(C)C(C(OC2OC(CN)C(O)C2O)C2OC(n3ccc(=O)[nH]c3=O)C(O)C2O)C(=O)N(C)C1C(=O)O (centres unmarked) [Compound VII-E], the “Minimum growth inhibitory concentration (mcg/ml) against bacteria Micrococcus luteus FDA16” value (Micrococcus luteus FDA16) was 1.56 µg/mL, the “Minimum growth inhibitory concentration (mcg/ml) against bacteria Staphylococcus aureus FDA209P” value [1] was 1.56 µg/mL and the “Minimum growth inhibitory concentration (mcg/ml) against bacteria Mycobacterium smegmatis ATCC607” value [2] was 0.39 µg/mL.
With CCCCCCCCCCCC(=O)OC1CN(C)C(C(OC2OC(CN)C(O)C2O)C2OC(n3ccc(=O)[nH]c3=O)C(O)C2O)C(=O)N(C)C1C(=O)O (centres unmarked) [Compound VII-F, caprazol-3′″-dodecanoyl Ester Derivative] the “Minimum growth inhibitory concentration (mcg/ml) against bacteria Micrococcus luteus FDA16” value (Micrococcus luteus FDA16) was 3.13 µg/mL, the “Minimum growth inhibitory concentration (mcg/ml) against bacteria Staphylococcus aureus FDA209P” value [1] was 0.78 µg/mL and the “Minimum growth inhibitory concentration (mcg/ml) against bacteria Mycobacterium smegmatis ATCC607” value [2] was 0.78 µg/mL.
In the case of CCCCCCCCCCCC(=O)OC1CN(C)C(C(OC2OC(CN)C(O)C2O)C2OC(n3ccc(=O)[nH]c3=O)C(O)C2O)C(=O)N(C)C1C(=O)OC (centres unmarked) [Compound VII-G, caprazol-1′″-methyl-ester-3′″-dodecanoyl-ester Derivative], the “Minimum growth inhibitory concentration (mcg/ml) against bacteria Micrococcus luteus FDA16” value (Micrococcus luteus FDA16) is reported as >100 µg/mL, the “Minimum growth inhibitory concentration (mcg/ml) against bacteria Staphylococcus aureus FDA209P” value [1] is reported as >100 µg/mL and the “Minimum growth inhibitory concentration (mcg/ml) against bacteria Mycobacterium smegmatis ATCC607” value [2] is reported as 50 µg/mL.
For CCCCCCCCC=CCCCCCCCC(=O)OC1CN(C)C(C(OC2OC(CN)C(O)C2O)C2OC(n3ccc(=O)[nH]c3=O)C(O)C2O)C(=O)N(C)C1C(=O)O (centres unmarked) [Compound VII-R], the “Minimum growth inhibitory concentration (mcg/ml) against bacteria Micrococcus luteus FDA16” value (Micrococcus luteus FDA16) was 3.13 µg/mL, the “Minimum growth inhibitory concentration (mcg/ml) against bacteria Staphylococcus aureus FDA209P” value [1] was 1.56 µg/mL and the “Minimum growth inhibitory concentration (mcg/ml) against bacteria Mycobacterium smegmatis ATCC607” value [2] was 6.25 µg/mL.
In the case of CCCCCCCCCCCCC[C@@H](CC(=O)O[C@H]1CN(C)[C@@H](C(O[C@@H]2O[C@H](CN)[C@@H](O)[C@H]2O)[C@H]2O[C@@H](n3ccc(=O)[nH]c3=O)[C@H](O)[C@@H]2O)C(=O)N(C)[C@@H]1C(=O)O)OC(=O)C[C@H](C)CC(=O)O[C@@H]1O[C@H](C)[C@@H](OC)[C@@H](OC)[C@H]1OC (some centres unmarked) [caprazamycin A], the “antibacterial activities against acid-fast bacteria” value (shortened to “antibacterial activities”) (acid-fast bacteria) is given as “high antibacterial activities”.
For CCCCCCCCCCCC[C@@H](CC(=O)O[C@H]1CN(C)[C@@H]([C@H](O[C@@H]2O[C@H](CN)[C@@H](O)[C@H]2O)[C@H]2O[C@@H](n3ccc(=O)[nH]c3=O)[C@H](O)[C@@H]2O)C(=O)N(C)[C@@H]1C(=O)O)OC(=O)C[C@H](C)CC(=O)O[C@@H]1O[C@@H](C)C(OC)[C@@H](OC)[C@H]1OC (some centres unmarked) [caprazamycin C], the “antibacterial activities” value (acid-fast bacteria) is given as “high antibacterial activities”.
In the case of CCCCCCCCCCC[C@@H](CC(=O)O[C@H]1CN(C)[C@@H](C(O[C@@H]2O[C@H](CN)[C@@H](O)[C@H]2O)[C@H]2O[C@@H](n3ccc(=O)[nH]c3=O)[C@H](O)[C@@H]2O)C(=O)N(C)[C@@H]1C(=O)O)OC(=O)C[C@H](C)CC(=O)O[C@@H]1O[C@H](C)[C@@H](OC)[C@@H](OC)[C@H]1OC (some centres unmarked) [caprazamycin E], the “antibacterial activities” value (acid-fast bacteria) is listed as “high antibacterial activities”.
For CO[C@H]1[C@@H](OC)[C@H](OC(=O)C[C@@H](C)CC(=O)O[C@@H](CCCCCCCCC(C)C)CC(=O)O[C@H]2CN(C)[C@@H](C(O[C@@H]3O[C@H](CN)[C@@H](O)[C@H]3O)[C@H]3O[C@@H](n4ccc(=O)[nH]c4=O)[C@H](O)[C@@H]3O)C(=O)N(C)[C@@H]2C(=O)O)O[C@H](C)[C@H]1OC (some centres unmarked) [caprazamycin F], the “antibacterial activities” value (acid-fast bacteria) is given as “high antibacterial activities”.
In the case of caprazamycin B, the “antibacterial activities” value (acid-fast bacteria) is given as “high antibacterial activities”.
